Experimental data as given in patent US4305951A, “Novel amino derivatives of 5-(2-hydroxystyryl)-isoxazole, their preparation and therapeutic formulations containing these compounds” (BASF Aktiengesellschaft, priority 1979, dated 1981).
“Also recorded” adds a separate entry of the source.

Legend:
[1] = system: isoproterenol-induced tachycardia; experiment: β-Sympatholytic action: inhibition of isoproterenol-induced tachycardia in pithed rats; conditions: for ED50: Rattus norvegicus, read-out: ED 50% (dose which inhibits the isoproterenol-induced increase in pulse rate by 50%)
in vivo = conditions: for LD50: ip
From the text: Intraperitoneal administration.

[2] = system: blood pressure in the carotid artery; experiment: Hypotensive action on narcotized rats; format: in vivo, rat (Sprague-Dawley); conditions: for ED20: Rattus norvegicus, read-out: ED 20% (dose which lowers the mean carotid blood pressure by 20%)
Procedure: To test the hypotensive action, the compounds are administered intravenously to male Sprague-Dawley rats (weight: 230-280 g) under urethane narcosis (1.78 g/kg administered intraperitineally).
The blood pressure in the carotid artery is measured by means of a Statham transducer. The ED 20% is determined as the dose which lowers the mean carotid pressure by 20%.
^(2) Rats. Urethane narcosis. Intravenous administration. ED 20% =
dose [in mg/kg] which lowers the blood pressure by 20%.

[3] = urethane narcosis, intravenous administration

Structure (SMILES): Cc1cc(/C=C/c2ccccc2OCC(O)CNC(C)CCc2ccc(O)cc2)on1 (centres unmarked) [Example 3, 3-methyl-5-[2-[2-hydroxy-3-(3-(4-hydroxyphenyl)-1-methylpropylamino)-propoxy]-styryl]-isoxazole]
- ED50 ([1]; iv): 0.0106 mg/kg
- β-sympatholytic activity compared with propranolol (in words) ([1]; pithed rats, intravenous): corresponds approximately to that of propranolol
- R.A. = relative activity (β-sympatholytic) ([1]; rat, in vivo, iv): 1.20
- Q: lethal dose as multiple of the β-sympatholytically effective dose (in vivo; mouse, in vivo): 24,600
- selectivity ratio (in vivo; mouse, in vivo): 24600
- LD50 (in vivo; mouse, in vivo): 261 mg/kg
- ED20 [2, 3]: 0.49 mg/kg

Structure (SMILES): COc1ccc(CCNCC(O)COc2ccccc2/C=C/c2cc(C)no2)cc1OC (centres unmarked) [Example 4, 3-methyl-5-[2-[2-hydroxy-3-(2-(3,4-dimethoxyphenyl)-1-ethylamino)-propoxy]-styryl]-isoxazole]
- ED50 ([1]; iv): 0.0215 mg/kg
- β-sympatholytic activity compared with propranolol (in words) ([1]; pithed rats, intravenous): corresponds approximately to that of propranolol
- R.A. = relative activity (β-sympatholytic) ([1]; rat, in vivo, iv): 0.59
- Q: lethal dose as multiple of the β-sympatholytically effective dose (in vivo; LD 50 mice i.p. / ED 50% pithed rats i.v.): 29,900
- selectivity ratio (in vivo; mouse, in vivo): 29900
- LD50 (in vivo; mouse, in vivo): 642 mg/kg
- ED20 [2, 3]: 0.7 mg/kg
- ED 20% (dose which lowers the mean carotid blood pressure by 20%) [2, 3]: 0.70 mg/kg

Structure (SMILES): CC(C)NCC(O)COc1cccc2ccccc12 (centres unmarked) [Propranolol, propranolol]
- R.A. = relative activity (β-sympatholytic) ([1]; Propranolol = 1.00, pithed rats, intravenous): 1.00
- increase of blood pressure ([2]; 2.15 mg/kg intravenous, urethane narcosis): 11%
- lowering of blood pressure ([2]; 4.64 mg/kg intravenous, urethane narcosis, average): 36%
- animals that died ([2]; 10 mg/kg intravenous, urethane narcosis): 2 out of 6
- hypotensive action (in words) ([2]; acute test, intravenous): does not have a hypotensive effect in acute test conditions; also recorded: up to doses of 2.15 mg/kg, does not lower the blood pressure
